The structures appear in SMILES notation.

A short description of this data set: Henry solubility constant Hcp at 298.15 K (mol/(m3 Pa)). Conditions: reference: Altschuh et al. (1999).
On to `O=[N+]([O-])c1cccc(Cl)c1` [3-chloronitrobenzene], for which the “Henry solubility constant Hcp” value was determined as 0.73.

With `c1ccc2c(c1)cc1ccc3cccc4ccc2c1c34` [benzo[a]pyrene], the “Henry solubility constant Hcp” value worked out at 13. On to `Nc1ccccc1[N+](=O)[O-]` [2-nitrobenzenamine], for which the “Henry solubility constant Hcp” value came out at 170. With `CCCCN` [1-butanamine], the “Henry solubility constant Hcp” value was determined as 0.56.

Regarding `c1ccc2ccccc2c1` [naphthalene], the “Henry solubility constant Hcp” value was found to be 0.018. For the compound `Nc1ccccc1` [aminobenzene], the “Henry solubility constant Hcp” value is 5.2. In the case of `CC(C)CO` [2-methyl-1-propanol], the “Henry solubility constant Hcp” value stood at 1.1. As for `CCC(O)CO` (stereo unspecified) [1,2-butanediol], the “Henry solubility constant Hcp” value was > 340.

As to `Cc1ccc2ccccc2c1` [2-methylnaphthalene], the “Henry solubility constant Hcp” value turned out to be 0.016. For `ClC1=C(Cl)[C@]2(Cl)[C@@H]3[C@H]4C[C@H]([C@@H]5O[C@H]45)[C@@H]3[C@@]1(Cl)C2(Cl)Cl` [endrin], the “Henry solubility constant Hcp” value was 1.6. As for `Cc1ccc([N+](=O)[O-])cc1` [4-nitrotoluene], the “Henry solubility constant Hcp” value is 1.8. Regarding `CN(C)C1CCCCC1` [N,N-dimethylcyclohexylamine], the “Henry solubility constant Hcp” value amounted to 0.42. For `CC(C)O` [2-propanol], the “Henry solubility constant Hcp” value turned out to be 0.92.

As to `ClC1C(Cl)C(Cl)C(Cl)C(Cl)C1Cl` (stereo unspecified) [γ-1,2,3,4,5,6-hexachlorocyclohexane], the “Henry solubility constant Hcp” value stood at 1.9.

In the case of `C#CC(C)(C)O` [2-methyl-3-butyn-2-ol], the “Henry solubility constant Hcp” value came to 2.5. Consider `OCCCc1ccccc1` [3-phenyl-1-propanol], for which the “Henry solubility constant Hcp” value is > 180. The same measure for `Cc1ccccc1O` [1-hydroxy-2-methylbenzene]: 6.3; for `ClC1=C(Cl)[C@]2(Cl)[C@H]3[C@H]([C@@H]4C=C[C@H]3C4)[C@@]1(Cl)C2(Cl)Cl` [aldrin]: 0.22. The same measure for `OCCc1ccccc1` [2-phenylethanol]: > 37. With `ClC1=C(Cl)C2(Cl)C3C4OC4C(Cl)C3C1(Cl)C2(Cl)Cl` (stereo unspecified) [heptachlorepoxide], the “Henry solubility constant Hcp” value was determined as 0.47.

As to `Cc1cccc2ccccc12` [1-methylnaphthalene], the “Henry solubility constant Hcp” value is 0.019. For `Clc1ccc(C(c2ccc(Cl)cc2)C(Cl)(Cl)Cl)cc1` [1,1,1-trichloro-2,2-bis-(4-chlorophenyl)-ethane], the “Henry solubility constant Hcp” value was 1.2. `CCCCCCCCCCCCCN` [1-tridecanamine]: the “Henry solubility constant Hcp” value was determined as 0.09.

For `Cc1cccc([N+](=O)[O-])c1` [3-nitrotoluene], the “Henry solubility constant Hcp” value stood at 1.1.

With `Cc1ccccc1` [methylbenzene], the “Henry solubility constant Hcp” value was 0.0017.

Consider `CCc1cccc2ccccc12` [1-ethylnaphthalene], for which the “Henry solubility constant Hcp” value came out at 0.014.

`C=CC(C)(O)CCC=C(C)C` (stereo unspecified) [3,7-dimethyl-1,6-octadien-3-ol]: the “Henry solubility constant Hcp” value came to 0.46.

As to `CCNc1ccccc1` [(ethylamino)-benzene], the “Henry solubility constant Hcp” value turned out to be 1.

`Cc1cccc(N)c1` [3-methylbenzenamine]: the “Henry solubility constant Hcp” value turned out to be 5.9. Turning to `Cc1ccccc1N` [2-methylbenzenamine], the “Henry solubility constant Hcp” value came out at 5.

In the case of `O=[N+]([O-])c1ccc(Cl)c(Cl)c1` [1,2-dichloro-4-nitrobenzene], the “Henry solubility constant Hcp” value turned out to be 1.2. For `Clc1ccc(C(c2ccc(Cl)cc2)C(Cl)Cl)cc1` [1,1-dichloro-2,2-bis-(4-chlorophenyl)-ethane], the “Henry solubility constant Hcp” value stood at 1.5. The figure for `CCCO` [1-propanol] is 2.7; for `O=[N+]([O-])c1ccc(Cl)cc1` [4-chloronitrobenzene] it is 2. The same measure for `CCCCCCO` [1-hexanol]: 0.98.

For `OCc1ccccc1` [(hydroxymethyl)-benzene], the “Henry solubility constant Hcp” value was > 37. For `Cc1ccc(O)cc1` [1-hydroxy-4-methylbenzene], the “Henry solubility constant Hcp” value is > 2.9. `O=[N+]([O-])c1ccccc1` [nitrobenzene]: the “Henry solubility constant Hcp” value turned out to be 1.2. Consider `OCCCCO` [1,4-butanediol], for which the “Henry solubility constant Hcp” value is > 900. As to `ClC1C(Cl)C(Cl)C(Cl)C(Cl)C1Cl` (stereo not drawn) [β-1,2,3,4,5,6-hexachlorocyclohexane], the “Henry solubility constant Hcp” value came to 22.

In the case of `Nc1cccc(Cl)c1` [1-amino-3-chlorobenzene], the “Henry solubility constant Hcp” value was 9.8.

For `Cc1cccc(O)c1` [1-hydroxy-3-methylbenzene], the “Henry solubility constant Hcp” value was determined as 12. Turning to `NC1CCCCC1` [cyclohexanamine], the “Henry solubility constant Hcp” value worked out at 2.4. The same measure for `CC1CCCC(O)C1` (stereo unspecified) [3-methylcyclohexanol]: 2.7. As for `C=CC(C)(C)O` [2-methyl-3-buten-2-ol], the “Henry solubility constant Hcp” value was determined as 0.47. `CCCCCCCO` [1-heptanol]: the “Henry solubility constant Hcp” value was 0.86. The same measure for `ClC(Cl)=C(c1ccc(Cl)cc1)c1ccc(Cl)cc1` [1,1-dichloro-2,2-bis-(4-chlorophenyl)-ethene]: 0.24; for `OCCCCc1ccccc1` [4-phenyl-1-butanol]: > 6.7; for `CCCCNCCCC` [dibutylamine]: 1.

`ClC1C(Cl)C(Cl)C(Cl)C(Cl)C1Cl` (stereo not drawn) [α-1,2,3,4,5,6-hexachlorocyclohexane]: the “Henry solubility constant Hcp” value was 0.81. Regarding `ClC1=C(Cl)[C@]2(Cl)[C@@H]3[C@@H]4C[C@@H]([C@H]5O[C@@H]45)[C@@H]3[C@@]1(Cl)C2(Cl)Cl` [dieldrin], the “Henry solubility constant Hcp” value came to 0.98. The same measure for `O=[N+]([O-])c1cc(Cl)ccc1Cl` [1,4-dichloro-2-nitrobenzene]: 0.82. `ClC1=C(Cl)C2(Cl)C3C(Cl)C=CC3C1(Cl)C2(Cl)Cl` (stereo unspecified) [heptachlor]: the “Henry solubility constant Hcp” value turned out to be 0.034. The figure for `CCc1ccc2ccccc2c1` [2-ethylnaphthalene] is 0.018; for `Nc1ccc([N+](=O)[O-])cc1Cl` [2-chloro-4-nitrobenzenamine] it is 1000; for `Nc1ccc([N+](=O)[O-])cc1` [4-nitrobenzenamine] it is 8600.

As to `Nc1cccc2ccccc12` [1-naphthylamine], the “Henry solubility constant Hcp” value amounted to 160. Consider `CCO` [ethanol], for which the “Henry solubility constant Hcp” value was 1.3. The figure for `COc1ccc(C(c2ccc(OC)cc2)C(Cl)(Cl)Cl)cc1` [methoxychlor] is 49; for `O=[N+]([O-])c1cccc2ccccc12` [1-nitronaphthalene] it is 5.6; for `OCC#CCO` [2-butyne-1,4-diol] it is > 2000. As for `c1ccccc1` [benzene], the “Henry solubility constant Hcp” value amounted to 0.0037.

For `CCCCCCCCCCO` [1-decanol], the “Henry solubility constant Hcp” value is 0.31. For the compound `OC1CCCCCCCCCCC1` [cyclododecanol], the “Henry solubility constant Hcp” value came out at 3.4. As to `CCCCCCCCO` [1-octanol], the “Henry solubility constant Hcp” value was determined as 0.65. The figure for `CCCCCCCCCCCCN(C)C` [N,N-dimethyl-1-dodecanamine] is > 4.

The values above are taken from Sander's compilation of Henry's law constants (doi:10.1016/s0045-6535(99)00082-x).
